Measurements from publication doi:10.1101/2024.08.25.609621 (bioRxiv, 2024).
Where two headings read alike, the source gives them in different places.

Molecular target: SARS-CoV-2 NSP3 macrodomain (Mac1), P43 crystal form (Severe acute respiratory syndrome coronavirus 2, UniProt P0DTD1)
Format: binding
Conditions: for 1-BDC: PanDDA background density correction; for Total number of conformations: ligand conformations modeled in Mac1 crystal structure; for 2*(1-BDC) (%): occupancy estimate from PanDDA 1-BDC; for X-ray crystallography: Binding site: site where the ligand is bound in the X-ray crystal structure
[1] = X-ray crystal structure determined (TRUE)
[2] = crystal soak 10 mM, P43 crystals
[3] = site of ligand in X-ray crystal structure
[4] = TRUE = crystal structure with ligand determined
[5] = crystal soak concentration 20 mM
[6] = crystal soak concentration 20 mM, event 1
[7] = crystal soak concentration 20 mM, P43 crystals
[8] = crystal soak, soak concentration 10 mM
[9] = crystal soak, soak concentration 10 mM, P43 crystals, TRUE = ligand-binding event identified
[10] = crystal soak, soak concentration 10 mM, event 1
[11] = crystal soak, soak concentration 10 mM, TRUE = ligand modeled
[12] = site of Mac1 where ligand bound in crystal structure
[13] = crystal soak, soak concentration 10 mM, TRUE = ligand hit

Structure (SMILES)	1-BDC	X-ray crystal structure [1]	Pandda run, overall: Hit [2]	Pandda run, overall: Modeled [2]	PanDDA run, DMSO background map: 1-BDC (crystal soak 10 mM)	PanDDA run, DMSO background map: Hit (crystal soak 10 mM)	Total number of conformations	2*(1-BDC) (%)	Binding site [3]	further results
OCC(CC1CCCCC1)Nc1ncnc2[nH]ccc12 (stereo not drawn) [AVI-3690]	0.12	TRUE	TRUE	TRUE	0.12	TRUE	1	24%	Adenosine	Pandda run, overall: Modeling comment [2]: Weak density for alternative ligand conformation
OCC(CC(O)c1ccccc1)Nc1ncnc2[nH]ccc12 (stereo not drawn) [AVI-3642]	0.17	TRUE	TRUE	TRUE	0.17	TRUE	1	34%	Adenosine	–
O=C(O)C1CCCN1S(=O)(=O)c1cccc2nsnc12 (stereo not drawn) [AVI-2]	0.2	–	–	–	–	–	1	40%	–	X-ray crystal structure [4]: TRUE; PanDDA run, DMSO background map: Hit [5]: TRUE; PanDDA run, DMSO background map: 1-BDC [6]: 0.22; Pandda run, overall: Hit [7]: TRUE; Pandda run, overall: Modeling comment [7]: Duplicate, not modeled; Pandda run, overall: Modeling comment [8]: DMSO; Pandda run, overall: Hit [9]: TRUE; PanDDA run, DMSO background map: Hit [8]: TRUE; PanDDA run, DMSO background map: Modeled [8]: TRUE; PanDDA run, DMSO background map: 1-BDC [10]: 0.2; Pandda run, overall: Modeled [11]: TRUE; Binding site [12]: Adenosine
OCC(Nc1ncnc2[nH]ccc12)C1CCc2ccccc21 (stereo not drawn) [AVI-3693]	0.22	TRUE	TRUE	TRUE	0.22	TRUE	2	44%	Adenosine	–
OCC(Cc1c[nH]c2ccccc12)Nc1ncnc2[nH]ccc12 (stereo not drawn) [AVI-3650]	0.15	TRUE	TRUE	TRUE	0.15	TRUE	2	30%	Adenosine	–
OCC(Nc1ncnc2[nH]ccc12)C1CCCC1 (stereo not drawn) [AVI-3649]	0.16	TRUE	TRUE	TRUE	0.16	TRUE	1	32%	Adenosine	–
CC1CC(C(=O)O)CCN1C(=O)c1ccc2c(c1)NC(=O)CO2 (stereo not drawn) [AVI-303]	0.13	–	–	–	–	–	1	26%	–	X-ray crystal structure [4]: TRUE; PanDDA run, DMSO background map: Hit [5]: TRUE; PanDDA run, DMSO background map: 1-BDC [6]: 0.19; Pandda run, overall: Hit [7]: TRUE; Pandda run, overall: Modeling comment [7]: Duplicate, not modeled; Pandda run, overall: Hit [9]: TRUE; PanDDA run, DMSO background map: Hit [8]: TRUE; PanDDA run, DMSO background map: Modeled [8]: TRUE; PanDDA run, DMSO background map: 1-BDC [10]: 0.13; Pandda run, overall: Modeled [11]: TRUE; Binding site [12]: Adenosine
OCC(COCc1ccccc1)Nc1ncnc2[nH]ccc12 (stereo not drawn) [AVI-3709]	0.19	TRUE	–	–	–	–	2	38%	Adenosine	Pandda run, overall: Modeled [8]: TRUE; Pandda run, overall: Hit [13]: TRUE; PanDDA run, DMSO background map: 1-BDC (soak concentration 10 mM): 0.19; PanDDA run, DMSO background map: Hit (soak concentration 10 mM): TRUE
CC(C)CCC(CO)Nc1ncnc2[nH]ccc12.O=C(O)C(F)(F)F (stereo not drawn) [AVI-3668]	–	–	TRUE	–	0.15	TRUE	–	–	–	Pandda run, overall: Modeling comment [2]: Weak density, not modeled; PanDDA run, TFA/DMSO background map: 1-BDC (crystal soak 10 mM): 0.09; PanDDA run, TFA/DMSO background map: Hit (crystal soak 10 mM): TRUE
O=C(O)C(F)(F)F.OCC(Cc1cccc(F)c1)Nc1ncnc2[nH]ccc12 (stereo not drawn) [AVI-3706]	–	–	–	–	–	–	–	–	–	Pandda run, overall: Modeling comment [8]: TFA only
O=C(O)C(F)(F)F.OCC1(Nc2ncnc3[nH]ccc23)CC1 [AVI-3688]	0.2	TRUE	TRUE	TRUE	0.2	TRUE	1	40%	Adenosine	–
OCC(CC1CCOC1)Nc1ncnc2[nH]ccc12 (stereo not drawn) [AVI-3665]	0.17	TRUE	TRUE	TRUE	0.17	TRUE	1	34%	Adenosine	–
OCC1CC2(CCCCC2)CN1c1ncnc2[nH]ccc12 (stereo not drawn) [AVI-3727]	0.29	–	–	–	–	–	1	58%	–	Pandda run, overall: Modeled [8]: TRUE; Pandda run, overall: Modeling comment [8]: Distal site, weak density, not modeled; Pandda run, overall: Hit [13]: TRUE; X-ray crystallography: Binding site: Adenosine; PanDDA run, DMSO background map: 1-BDC (soak concentration 10 mM): 0.29; PanDDA run, DMSO background map: Hit (soak concentration 10 mM): TRUE
OCC(CC1CCCC1)Nc1ncnc2[nH]ccc12 (stereo not drawn) [AVI-3691]	0.18	TRUE	TRUE	TRUE	0.18	TRUE	1	36%	Adenosine	–
O=C(O)C(F)(F)F.OCC(Nc1ncnc2[nH]ccc12)C(O)C1CCCCC1 (stereo not drawn) [AVI-3687]	–	–	TRUE	–	0.15	TRUE	–	–	–	Pandda run, overall: Modeling comment [2]: Weak density, not modeled; PanDDA run, TFA/DMSO background map: 1-BDC (crystal soak 10 mM): 0.08; PanDDA run, TFA/DMSO background map: Hit (crystal soak 10 mM): TRUE
OCC(Cc1ccoc1)Nc1ncnc2[nH]ccc12 (stereo not drawn) [AVI-3705]	0.21	TRUE	–	–	–	–	1	42%	Adenosine	Pandda run, overall: Modeled [8]: TRUE; Pandda run, overall: Hit [13]: TRUE; PanDDA run, DMSO background map: 1-BDC (soak concentration 10 mM): 0.21; PanDDA run, DMSO background map: Hit (soak concentration 10 mM): TRUE
OCC(Cc1nccs1)Nc1ncnc2[nH]ccc12 (stereo not drawn) [AVI-3673]	0.19	TRUE	TRUE	TRUE	0.19	TRUE	1	38%	Adenosine	–
CO[C@@H]1C[C@H](CO)N(c2ncnc3[nH]ccc23)C1 [AVI-3656]	0.26	–	TRUE	TRUE	0.26	TRUE	1	52%	–	X-ray crystallography: Binding site: Adenosine
